Legend:
[1] = test system: photoreceptor cells; test: mature retinal cell culture system with A2E as cell stressor, photoreceptor survival; type: cell-based, Porcine
Description: (§1) The retinal cell culture system may be exposed to A2E at any concentration between 1 pM and 200 μM (e.g., 1 pM, 10 pM, 100 pM, 250 pM, 500 pM, 750 pM, 1 nM, 10 nM, 50 nM, 100 nM, 250 nM, 500 nM, 750 nM, 1 μM, 2 μM, 5 μM, 7.5 μM, 10 μM, 15 μM, 20 μM, 25 μM, 40 μM, 50 μM, 75 μM, 100 μM, 120 μM, 200 μM); or 250 μM, 500 μM, or 750 μM), between 1 μM and 40 μM, or between 10 μM and 20 μM, for a period of time, for example, between 2 and 48 hours or between 12 and 36 hours. In another embodiment, the cell culture may be exposed to lower concentrations of A2E (for example, between 1 pM and 10 μM or between 1 nM and 1 μM) for longer times (such as about one week, about two weeks, or about one month (4 weeks)).
(§2) Porcine eyes are obtained from Kapowsin Meats, Inc. (Graham, Wash.). Eyes are enucleated, and muscle and tissue are cleaned away from the orbit. Eyes are cut in half along their equator and the neural retina is dissected from the […] part of the eye in buffered saline solution, according to standard methods known in the art. […]
(§3) The retinal neuronal cells are cultured for 1, 3, 6, and 8 weeks, and the cells are analyzed by immunohistochemistry at each time point. […]
(§4) Cultures are analyzed by counting rhodopsin-labeled photoreceptors and NFM-labeled ganglion cells using an Olympus 1X81 or CZX41 microscope (Olympus, Tokyo, Japan). […]

[2] = test system: ganglion cells; test: mature retinal cell culture system with A2E as cell stressor, ganglion cell survival; type: cell-based, Porcine; details: 20 μM A2E for 48 hours
Description: as §1, §2, §3, §4

## CC(C=CC1=C(C)CCCC1(C)C)=CC=CC(C)=Cc1cc(C=CC=C(C)C=CC2=C(C)CCCC2(C)C)cc[n+]1CCO [A2E, N-retinylidene-N-retinyl-ethanolamine]
[1]; 20 μM A2E for 48 hours, compared to photoreceptor cells not exposed to A2E
  death of photoreceptor cells: more than 90%
[1]; concentration and time not stated
  effect of exposure of the retinal neuronal cell culture system to A2E: selective killing of certain cells, particularly photoreceptor cells
[2]
  survival of ganglion cells: not adversely affected
